In experiment [1] the target is T1, 5-hydroxytryptamine receptor 1A (Rattus norvegicus, UniProt P19327). Also: in other assays of this panel Not Active means under 50% inhibition at 10 µM.
T1 sequence (P19327 whole entry): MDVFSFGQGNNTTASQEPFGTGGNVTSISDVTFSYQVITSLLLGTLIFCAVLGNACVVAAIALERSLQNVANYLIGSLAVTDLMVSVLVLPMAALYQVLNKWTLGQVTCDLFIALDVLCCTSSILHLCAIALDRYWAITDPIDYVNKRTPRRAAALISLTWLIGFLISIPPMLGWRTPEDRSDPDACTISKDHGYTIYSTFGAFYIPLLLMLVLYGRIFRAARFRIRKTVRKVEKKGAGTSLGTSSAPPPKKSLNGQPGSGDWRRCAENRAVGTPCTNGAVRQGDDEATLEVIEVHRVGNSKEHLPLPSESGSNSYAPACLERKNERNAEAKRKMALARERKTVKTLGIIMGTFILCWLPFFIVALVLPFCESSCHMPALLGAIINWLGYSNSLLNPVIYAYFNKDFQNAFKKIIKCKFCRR
In kind it is cell membranes, CHO-K1, Membrane. As to conditions: cho-k1.

For experiment [2], the target named is T2, Polyunsaturated fatty acid lipoxygenase ALOX15 (Oryctolagus cuniculus, UniProt P12530).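 Also: inhibition of 15-lipoxygenase enzyme activity measured with linoleic acid as the substrate; in other assays of this panel Not Active means under 50% inhibition at 10 µM.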
T2 sequence (P12530 whole entry): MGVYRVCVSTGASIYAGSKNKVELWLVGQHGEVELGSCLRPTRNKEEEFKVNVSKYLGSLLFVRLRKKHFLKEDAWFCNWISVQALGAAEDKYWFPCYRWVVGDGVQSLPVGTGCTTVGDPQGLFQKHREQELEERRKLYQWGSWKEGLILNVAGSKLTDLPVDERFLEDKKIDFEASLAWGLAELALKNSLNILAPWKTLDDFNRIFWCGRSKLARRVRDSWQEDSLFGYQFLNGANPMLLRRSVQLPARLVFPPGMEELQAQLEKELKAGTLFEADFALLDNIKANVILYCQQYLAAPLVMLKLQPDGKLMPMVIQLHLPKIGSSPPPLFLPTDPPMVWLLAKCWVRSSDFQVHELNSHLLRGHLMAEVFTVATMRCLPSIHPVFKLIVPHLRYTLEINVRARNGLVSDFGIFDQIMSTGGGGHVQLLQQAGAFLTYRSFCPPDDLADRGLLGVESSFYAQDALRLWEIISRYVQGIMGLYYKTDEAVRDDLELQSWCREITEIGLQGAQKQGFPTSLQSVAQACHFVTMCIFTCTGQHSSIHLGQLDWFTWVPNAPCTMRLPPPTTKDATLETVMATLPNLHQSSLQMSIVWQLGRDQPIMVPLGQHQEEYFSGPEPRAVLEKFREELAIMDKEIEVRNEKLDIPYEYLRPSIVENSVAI
Briefly: biochemical. It is filed as tissue-based, Reticulocytes. As to conditions: reticulocytes.

Experiment [3] has as its target Platelet-activating factor receptor (Homo sapiens, UniProt P25105). In kind it is tissue-based. Also: in other assays of this panel Not Active means under 50% inhibition at 10 µM.
For experiment [4], the target named is Aldo-keto reductase family 1 member B1 (Rattus norvegicus, UniProt P07943). Briefly: biochemical. In kind it is tissue-based, Lens of camera-type eye.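 Also: inhibition of aldose reductase enzyme activity, measured with DL-glyceraldehyde as the substrate; in other assays of this panel Not Active means under 50% inhibition at 10 µM.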
Experiment [5] concerns the target T3, 5-hydroxytryptamine receptor 2C (Homo sapiens, UniProt P28335).
T3 sequence (P28335 whole entry): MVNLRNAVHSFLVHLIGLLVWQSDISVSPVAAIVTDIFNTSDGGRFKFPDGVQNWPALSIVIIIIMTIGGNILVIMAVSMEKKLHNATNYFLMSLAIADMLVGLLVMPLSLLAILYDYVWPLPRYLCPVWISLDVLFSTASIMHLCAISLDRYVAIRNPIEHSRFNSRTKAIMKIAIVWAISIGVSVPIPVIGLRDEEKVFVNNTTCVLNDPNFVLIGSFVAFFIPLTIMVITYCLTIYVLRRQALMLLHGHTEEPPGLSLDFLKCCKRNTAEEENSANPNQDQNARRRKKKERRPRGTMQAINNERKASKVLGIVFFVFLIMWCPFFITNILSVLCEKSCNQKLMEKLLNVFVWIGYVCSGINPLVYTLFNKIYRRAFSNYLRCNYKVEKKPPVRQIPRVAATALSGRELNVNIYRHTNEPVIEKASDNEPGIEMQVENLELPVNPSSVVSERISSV
Kind of experiment: DRUGMATRIX: Serotonin (5-Hydroxytryptamine) 5-HT2C radioligand binding (ligand: [3H] Mesulergine). In kind it is cell membranes, CHO-K1, Membrane. As to conditions: Not Active = under 50% inhibition at 10 µM.

Experiment [6] has as its target T4, Neutrophil elastase (Homo sapiens, UniProt P08246).
T4 sequence (P08246 whole entry): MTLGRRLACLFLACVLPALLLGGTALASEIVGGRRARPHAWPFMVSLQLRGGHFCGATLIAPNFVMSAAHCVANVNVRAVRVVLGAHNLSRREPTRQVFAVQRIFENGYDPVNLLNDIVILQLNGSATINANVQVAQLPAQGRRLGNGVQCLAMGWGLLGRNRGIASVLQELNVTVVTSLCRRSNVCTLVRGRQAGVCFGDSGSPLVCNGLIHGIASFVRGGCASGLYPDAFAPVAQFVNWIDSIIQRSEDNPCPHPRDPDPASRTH
It is filed as tissue-based.

Here are results for 19 molecules from ChEMBL document CHEMBL1909046, “DrugMatrix in vitro pharmacology data”.

Sequence of Platelet-activating factor receptor (P25105 whole entry): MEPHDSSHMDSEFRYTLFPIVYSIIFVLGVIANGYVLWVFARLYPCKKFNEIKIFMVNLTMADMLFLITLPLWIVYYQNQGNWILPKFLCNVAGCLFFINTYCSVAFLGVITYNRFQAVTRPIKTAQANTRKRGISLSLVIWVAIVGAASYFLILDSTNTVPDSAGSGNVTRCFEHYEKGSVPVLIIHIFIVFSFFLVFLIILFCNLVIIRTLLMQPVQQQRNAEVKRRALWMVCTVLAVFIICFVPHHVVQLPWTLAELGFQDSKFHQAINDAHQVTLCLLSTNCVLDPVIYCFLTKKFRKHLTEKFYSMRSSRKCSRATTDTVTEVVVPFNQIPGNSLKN

As usually defined, the IC50 is the midpoint of a concentration-inhibition curve. Consider `CN(C)C(=O)Oc1cccc([N+](C)(C)C)c1.[Br-]` [NEOSTIGMINE BROMIDE], for which the IC50 entry in experiment [1], in experiment [2], in experiment [3], in experiment [4], in experiment [5] (cho-k1) and in experiment [6] was “Not Active” throughout.
With `NC(=O)c1cccnc1` [NIACINAMIDE], the IC50 result in experiment [1], in experiment [2], in experiment [3], in experiment [4], in experiment [5] (cho-k1) and in experiment [6] was “Not Active” each time.
In the case of `CS(=O)(=O)Nc1ccc([N+](=O)[O-])cc1Oc1ccccc1` [NIMESULIDE], the IC50 entry in experiment [1], in experiment [2], in experiment [3], in experiment [4], in experiment [5] (cho-k1) and in experiment [6] was “Not Active” each time.
Turning to `CN1C(=O)CN=C(c2ccccc2)c2cc([N+](=O)[O-])ccc21` [NIMETAZEPAM], the IC50 entry in experiment [1], in experiment [2], in experiment [3], in experiment [4], in experiment [5] (cho-k1) and in experiment [6] was “Not Active” in each case.
For the molecule `COc1ccc2c(c1OC)C(=O)O[C@@H]2[C@H]1c2c(cc3c(c2OC)OCO3)CCN1C` [NOSCAPINE], the IC50 result in experiment [1], in experiment [2], in experiment [3], in experiment [4], in experiment [5] (cho-k1) and in experiment [6] was “Not Active” in each case.
On to `C[C@@H]1O[C@@H](O[C@H]2C[C@@H](O)[C@]3(CO)[C@H]4[C@H](O)C[C@]5(C)[C@@H](C6=CC(=O)OC6)CC[C@]5(O)[C@@H]4CC[C@]3(O)C2)[C@H](O)[C@H](O)[C@H]1O` [OUABAIN], for which the IC50 entry in experiment [1], in experiment [2], in experiment [3], in experiment [4], in experiment [5] (cho-k1) and in experiment [6] was “Not Active” in each case.
As to `NC(=O)N1c2ccccc2CC(=O)c2ccccc21` [OXCARBAZEPINE], the IC50 result in experiment [1], in experiment [2], in experiment [3], in experiment [4], in experiment [5] (cho-k1) and in experiment [6] was “Not Active” each time.
In the case of `COc1ccnc(C[S+]([O-])c2nc3ccc(OC(F)F)cc3[nH]2)c1OC` (configuration not stated) [PANTOPRAZOLE], the 50% inhibitory concentration (IC50) entry in experiment [1], in experiment [2], in experiment [3], in experiment [4], in experiment [5] (cho-k1) and in experiment [6] was “Not Active” throughout.
The Ki is the equilibrium dissociation constant of an inhibitor or competing ligand from its target. Take `N=C(N)c1ccc(OCCCCCOc2ccc(C(=N)N)cc2)cc1` [PENTAMIDINE]: the IC50 entry in experiment [1] is “Not Active”; in experiment [2], “Not Active”; in experiment [3] it was “Not Active”; in experiment [4] it was “Not Active”; in experiment [5] (read-out: IC50), 3.28 µM; in experiment [6] it was “Not Active”. Further, the Ki in experiment [5] (read-out: Ki) came out at 1.72 µM.
`NNCCc1ccccc1` [PHENELZINE]: the concentration for half-maximal inhibition (IC50) entry in experiment [1], in experiment [2], in experiment [3], in experiment [4], in experiment [5] (cho-k1) and in experiment [6] was “Not Active” in each case.
In the case of `CCc1ccc(CCOc2ccc(CC3SC(=O)NC3=O)cc2)nc1` (configuration not stated) [PIOGLITAZONE], the IC50 entry in experiment [1] was “Not Active”; in experiment [2], “Not Active”; in experiment [3], “Not Active”; in experiment [4] (read-out: IC50), 13.2 µM; in experiment [5] (cho-k1), “Not Active”; in experiment [6], “Not Active”.
`CCCNC(C)C(=O)Nc1ccccc1C` (configuration not stated) [PRILOCAINE]: the IC50 entry in experiment [1], in experiment [2], in experiment [3], in experiment [4], in experiment [5] (cho-k1) and in experiment [6] was “Not Active” in each case.
`CCN(CC)CCNC(=O)c1ccc(N)cc1` [PROCAINAMIDE]: the IC50 result in experiment [1], in experiment [2], in experiment [3], in experiment [4], in experiment [5] (cho-k1) and in experiment [6] was “Not Active” each time.
Turning to `CCN(CC)CCCC(C)Nc1c2ccc(Cl)cc2nc2ccc(OC)cc12` (configuration not stated) [QUINACRINE], the IC50 result in experiment [1], in experiment [2], in experiment [3], in experiment [4], in experiment [5] (cho-k1) and in experiment [6] was “Not Active” in each case.
In the case of `C[C@]12C=CC(=O)C=C1CC[C@H]1[C@@H]3C[C@@H](O)[C@](O)(C(=O)CO)[C@@]3(C)C[C@H](O)[C@@]12F` [TRIAMCINOLONE], the IC50 entry in experiment [1], in experiment [2], in experiment [3], in experiment [4], in experiment [5] (cho-k1) and in experiment [6] was “Not Active” each time.
For the molecule `CC[C@]1(O)C[C@@H]2CN(CCc3c([nH]c4ccccc34)[C@@](C(=O)OC)(c3cc4c(cc3OC)N(C)[C@H]3[C@@](O)(C(N)=O)[C@H](O)[C@]5(CC)C=CCN6CC[C@]43[C@@H]65)C2)C1` [VINDESINE], the IC50 entry in experiment [1], in experiment [2], in experiment [3], in experiment [4], in experiment [5] (cho-k1) and in experiment [6] was “Not Active” in each case.
Regarding `CCN(C(C)=O)c1cccc(-c2ccnc3c(C#N)cnn23)c1` [ZALEPLON], the IC50 entry in experiment [1], in experiment [2], in experiment [3], in experiment [4], in experiment [5] (cho-k1) and in experiment [6] was “Not Active” throughout.
As for COBALTOUS CHLORIDE, the IC50 entry in experiment [1], in experiment [2], in experiment [3], in experiment [4], in experiment [5] (cho-k1) and in experiment [6] was “Not Active” in each case. Also, the Ki result in experiment [1], in experiment [2], in experiment [3], in experiment [4], in experiment [5] (cho-k1) and in experiment [6] was “Not Active” throughout.
With COLISTIN, the IC50 result in experiment [1], in experiment [2], in experiment [3], in experiment [4], in experiment [5] (cho-k1) and in experiment [6] was “Not Active” in each case. Moreover, the Ki result in experiment [1], in experiment [2], in experiment [3], in experiment [4], in experiment [5] (cho-k1) and in experiment [6] was “Not Active” each time.
